From ChEMBL document CHEMBL1151685, “Structure-activity relationship of antibacterial chalcones” (2008) come the findings set out here.

In general, MBC refers to the smallest concentration meeting the test's criterion for killing. The low end stands for more potent killing, the high end for less potent killing. One may read the MIC as the lowest concentration found to suppress growth.

Each structure is given as a SMILES string. ≈ marks a conversion by molar mass, not a printed value. A value given as a limit tells only on which side of the number the result lay.

Assay type in all cases: functional
The test system of assay [1] is Bacillus cereus. The assay is described as follows: Antibacterial activity against Bacillus cereus ATCC 11778 after 24 hrs by microdilution broth method. Particulars: ATCC 11778, 24 h.
Assay [2] relates to Escherichia coli. As to the kind of experiment: Antibacterial activity against Escherichia coli ATCC 25922 after 24 hrs by microdilution broth method. The settings on record: ATCC 25922, 24 h. (In general: Dilution methods test growth across graded concentrations, often in twofold steps.)
Assay [3] relates to Pseudomonas aeruginosa. The assay is described as follows: Antibacterial activity against Pseudomonas aeruginosa ATCC 27853 after 24 hrs by microdilution broth method. The settings on record: ATCC 27853, 24 h.
Assay [4] has as its system Staphylococcus aureus. The assay is described as follows: Antibacterial activity against Staphylococcus aureus ATCC 25923 after 24 hrs by microdilution broth method. The settings on record: ATCC 25923, 24 h.

Regarding `CC1(C)C=Cc2cc(C(=O)/C=C/c3ccccc3)c(O)cc2O1` [ISOLONCHOCARPIN], the MBC in assay [1], in assay [2], in assay [3] and in assay [4] was > 2000 µg/mL each time. Also, the MIC amounted to 1000 µg/mL (≈ 3.26 mM) in assay [1], 2000 µg/mL (≈ 6.53 mM) in assay [2], 2000 µg/mL (≈ 6.53 mM) in assay [3] and 2000 µg/mL (≈ 6.53 mM) in assay [4].

In the case of `CC1(C)C=Cc2c(ccc(C(=O)/C=C/c3ccccc3)c2O)O1` [LONCHOCARPIN], the MBC in assay [1] is 2000 µg/mL (≈ 6.53 mM); in assay [2] it was 1000 µg/mL (≈ 3.26 mM); in assay [3], 2000 µg/mL (≈ 6.53 mM); in assay [4], 2000 µg/mL (≈ 6.53 mM). For the same compound, the MIC in assay [1] came out at 2000 µg/mL (≈ 6.53 mM); in assay [2], 1000 µg/mL (≈ 3.26 mM); in assay [3], 2000 µg/mL (≈ 6.53 mM); in assay [4], 2000 µg/mL (≈ 6.53 mM).

Consider `O=C(CCc1ccc(O)cc1)c1c(O)cc(O)cc1O` [PHLORETIN], for which the MBC was determined as 250 µg/mL (≈ 0.912 mM) in assay [1], 1000 µg/mL (≈ 3.65 mM) in assay [2], 2000 µg/mL (≈ 7.29 mM) in assay [3] and 250 µg/mL (≈ 0.912 mM) in assay [4]. In addition, the MIC in assay [1] is 250 µg/mL (≈ 0.912 mM); in assay [2] it was > 2000 µg/mL; in assay [3], 2000 µg/mL (≈ 7.29 mM); in assay [4] it was 250 µg/mL (≈ 0.912 mM).

For `CN(C)[C@@H]1C(O)=C(C(N)=O)C(=O)[C@@]2(O)C(O)=C3C(=O)c4c(O)cccc4[C@@](C)(O)[C@H]3C[C@@H]12` [TETRACYCLINE], the minimal inhibitory concentration (MIC) in assay [1] is 0.25 µg/mL (≈ 0.000563 mM); in assay [2], 2 µg/mL (≈ 0.0045 mM); in assay [3], 32 µg/mL (≈ 0.072 mM); in assay [4], 1 µg/mL (≈ 0.00225 mM).
